What was measured:
IL-6 = assay: Cytokine production induced by sample formulations: IL-6; type: in vivo; conditions: mice, i.v., 0.5 mpk, 6 hours; for IL-6: Table 17-4, in pg/mL (unit assumed)
From the text: (§1) The introduction of foreign material into a mammalian body induces an innate immune response that promotes cytokine production. Such immune responses to, for example, nanoparticle compositions including therapeutic and/or prophylactic agents, are undesirable. The induction of certain cytokines is thus measured to evaluate the […] of nanoparticle compositions. The concentrations of various cytokines in mice upon intravenous administration of nanoparticle compositions presented in Tables 1, 1a, 17-1, 19-1, 20-1 and 21-1 at a dosage of 0.5 mpk was measured at 6 hours. The standard MC3 formulation and a PBS control were also tested.

[1] = Particle size and polydispersity index of nanoparticle compositions (Zetasizer Nano ZS); type: physicochemical; conditions: for PDI / Size (nm): Table 17-1; for particle size, rank within the named table (in words): comparison amongst compositions
Outline: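 Measured in 1×PBS by Zetasizer Nano ZS.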

[2] = system: modified luciferase expression; assay: Expression of Luc in different organs (liver, lung, spleen, femur) 6 hours after intravenous administration; type: in vivo; conditions: i.v., 0.5 mpk
Description: The efficacy of the nanoparticle compositions presented in Tables 1, 1a, 17-1, 19-1, 20-1 and 21-1 was further evaluated by measuring the expression of modified luciferase in the liver, lung, spleen, and femur upon administration of a given composition. Formulations were administered intravenously to mice (n=3) at a dosage of 0.5 mpk and bioluminescence measured after 6 hours. The standard MC3 formulation and a PBS control were also tested.

[3] = pKa of nanoparticle compositions; type: physicochemical; conditions: Table 17-1
IP-10 = assay: Cytokine production induced by sample formulations: IP-10; type: in vivo; conditions: mice, i.v., 0.5 mpk, 6 hours; for IP-10: Table 17-4, in pg/mL (unit assumed)
From the text: as §1

[4] = Encapsulation efficiency of RNA (QUANT-IT RIBOGREEN RNA assay); type: physicochemical; conditions: for EE (%): Table 17-1; for encapsulation efficiency, rank within the named table (in words): comparison amongst compositions
Outline: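 RiboGreen fluorescence (ex ~480, em ~520 nm) measured after 15 min at 37 °C on samples at ~5 μg/mL in TE, pH 7.5, ± 2% Triton X-100 solution. After blank subtraction, free RNA is given as intact-sample signal divided by disrupted-sample signal.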

[5] = system: luciferase (Luc) mRNA expression; assay: Expression of Luc induced by sample formulations, whole-body bioluminescence after intravenous administration; type: in vivo; conditions: mice, i.v., 0.5 mg/kg; for Total Flux 3 hours / Total Flux 6 hours / Total Flux 24 hours: Table 17-2
Outline: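 Read-out is whole-body bioluminescence at 3, 6 and 24 h after a single intravenous dose of 0.5 mg/kg Luc mRNA in nanoparticle formulations. Groups of n=6 mice; PBS and standard MC3 formulation as references.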

| SMILES | IL-6 (IL-6) | IL-6 induction, rank within the named table (in words) (IL-6) | PDI [1] | Size (nm) [1] [nm] | Total Flux Liver ([2]; Table 17-3, mice, liver) | Total Flux Lung ([2]; Table 17-3, mice) | Total Flux Spleen ([2]; Table 17-3, mice) | pKa [3] | IP-10 (IP-10) | IP-10 induction, rank or comparison with IL-6 (in words) (IP-10) | EE (%) [4] [%] | Total Flux 3 hours [5] | Total Flux 6 hours [5] | Total Flux 24 hours [5] | total flux in the spleen, rank within the named table (in words) ([2]; mice) | total flux / Luc expression, rank within the named table (in words) ([5]; each time point) | total flux in the liver, rank within the named table (in words) ([2]; mice, liver) | encapsulation efficiency, rank within the named table (in words) [4] | particle size, rank within the named table (in words) [1] | Total Flux Femur ([2]; Table 17-3, mice, femur) |
| --- | --- | --- | --- | --- | --- | --- | --- | --- | --- | --- | --- | --- | --- | --- | --- | --- | --- | --- | --- | --- |
| CCCCC/C=C\C/C=C\CCCCCCCCN(CCO)CCCCCCCCC [Compound 17-3, 2-(Nonyl((9Z,12Z)-octadeca-9,12-dien-1-yl)amino)ethan-1-ol] | 6.97 | lowest IL-6 levels | 0.095 | 117.9 | 2.51E+05 | 1.56E+04 | 1.02E+05 | 6.69 | 66.8 | lowest IP-10 levels | 82.1 | 5.58E+05 | 1.38E+06 | 9.90E+05 | – | – | – | – | – | – |
| CCCCC/C=C\C/C=C\CCCCCCCCN(CCO)CCCCCCCCCCCC [Compound 17-4, 2-(Dodecyl((9Z,12Z)-octadeca-9,12-dien-1-yl)amino)ethan-1-ol] | 80.7 | highest IL-6 and IP-10 levels | 0.154 | 95.6 | 8.00E+07 | 1.95E+05 | 2.30E+06 | 6.34 | 560 | highest IL-6 and IP-10 levels | 94.5 | 1.22E+09 | 3.60E+08 | 6.05E+07 | highest | substantially higher flux than compositions including Compounds 17-2, 17-3, and 17-7 | – | – | – | – |
| CCCCC/C=C\C/C=C\CCCCCCCCN(CCO)CCCCCCCCCCCCCC [Compound 17-5, 2-(((9Z,12Z)—Octadeca-9,12-dien-1-yl)(tetradecyl)amino)ethan-1-ol] | 49.2 | – | 0.137 | 88.4 | 1.17E+08 | 8.13E+05 | 2.13E+06 | 6.92 | 300 | – | 94.2 | 6.64E+08 | 8.54E+08 | 5.97E+07 | highest | – | somewhat comparable to those including MC3 | – | – | – |
| CCCCC/C=C\C/C=C\CCCCCCCCN(CCO)CCCCCCCCCCCCCCCCCC [Compound 17-6, 2-(((9Z,12Z)—Octadeca-9,12-dien-1-yl)(octadecyl)amino)ethan-1-ol] | 25.0 | – | 0.117 | 80.2 | 2.16E+07 | 1.54E+05 | 9.06E+05 | 6.73 | 134 | – | 97.3 | 6.27E+07 | 1.19E+08 | 1.27E+07 | – | – | – | comparable to that for MC3 | – | – |
| CCCCCCCCCCCCCCN(CCO)CCCCCCCCCCCCCC [Compound 17-7, 2-(Ditetradecylamino)ethan-1-ol] | 49.9 | – | 0.110 | 68.5 | 7.44E+04 | 1.35E+04 | 3.46E+04 | 5.68 | 100 | – | 95.6 | 4.68E+05 | 6.82E+05 | 5.46E+05 | – | – | – | – | smallest particles | – |
| CCCCC/C=C\C/C=C\CCCCCCCCN(CCCCCCCC/C=C\C/C=C\CCCCC)CCOC [Compound 17-9, (9Z,12Z)—N-(2-Methoxyethyl)-N-((9Z,12Z)-octadeca-9,12-dien-1-yl)octadeca-9,12-dien-1-amine] | 35.2 | – | 0.138 | 87.1 | 1.39E+06 | 1.40E+04 | 3.72E+05 | 4.93 | 112 | – | 95.0 | 6.87E+06 | 9.97E+06 | 3.43E+05 | – | – | – | – | – | 2.29E+04 |
| CCCCCCCCCN(CCO)CCCCCCCCC [Compound 17-10, 2-(Dinonylamino)ethan-1-ol] | 7.33 | lowest IL-6 levels | 0.239 | 165.0 | 2.00E+05 | 2.52E+04 | 1.74E+04 | 2.85 | 243 | – | 30.3 | 6.61E+05 | 1.16E+06 | 4.06E+05 | – | – | – | did not encapsulate RNA with high efficiency | largest particles | – |
| CCCCCCCCCCCCN(CCCO)CCCCCCCCCCCC [Compound 17-12, 3-(Didodecylamino)propan-1-ol] | 83.1 | – | 0.148 | 76.1 | 4.94E+05 | 4.89E+04 | 7.81E+04 | 6.83 | 148 | – | 95.04 | 2.94E+06 | 2.54E+06 | 4.66E+05 | – | – | – | – | smallest particles | – |
| CCCCCCCCCCCCN(CCCCO)CCCCCCCCCCCC [Compound 17-13, 4-(Didodecylamino)butan-1-ol] | 84.3 | – | 0.176 | 90.4 | 3.56E+05 | 4.66E+04 | 1.90E+05 | 6.89 | 222 | – | 89.22 | 1.10E+06 | 1.80E+06 | 7.95E+05 | – | – | – | – | – | – |
